No end group written: not given here. *: point of attachment. FITC = O=C1OC2(c3ccc(O)cc3Oc3cc(O)ccc32)c2ccc(NC(=S)*)cc21
How the values were obtained:
[1] = tested on: KLC2^TPR-myc Thr^200Asp (T200D); test: ITC of FITC-CSTN-WD2 peptide into T200D KLC2^TPR-myc; type: binding, murine; details: 25°C, 0.1 M NaCl, n = 3
Source text: (§1) The KLC2^TPR construct used in this work comprised murine KLC2 residues 191-480, which is similar to those used in previous studies ([Nguyen et al., 2017], [Zhu et al., 2012]) but with a slightly longer N-terminal region to include residues 191-194, which are very highly conserved in Bilaterian KLCs. To construct the pMW-His6-SUMO-KLC2^TPR vector, the sequence encoding KLC2^TPR (residues 191-480) was amplified by PCR from a murine template ([Dodding et al., 2011]) and cloned into the NotI/EcoRI sites of pMW his-SUMO. The His6-SUMO- KLC2^TPR-myc vectors were constructed likewise, but using a reverse primer sequence encoding the KLC^TPR C-terminal region up to residue 480, a BglII site, and an in-frame myc-tag sequence, thus fusing the amino acid sequence […] to the KLC2^TPR C-terminus. KLC2^TPR-myc mutants (Thr^200Asp, Tyr^208Ala, Gln^223Lys and Arg^312Glu) were generated by overlap PCR.
The Trp-JIP3^LZ protein used for CD and ITC experiments was prepared as described above for the JIP3^LZ, with the following modifications. […] The Trp-JIP3^LZ and KLC2^TPR-myc samples used in the fluorescence anisotropy-based binding competition assays were prepared as for those used in the CD and ITC studies, but the final size-exclusion step was performed in 100 mM NaCl, 25 mM HEPES, 5mM MgCl2, 1 mM TCEP (final pH 7.5).
To study binding of the Trp-JIP3^LZ and FITC-CSTN-WD2 peptide to wild-type and mutant KLC2^TPR-myc, the recombinant proteins were prepared by size exclusion chromatography in 0.1 M NaCl, 25 mM HEPES, 1 mM TCEP, final pH 7.5. […] The peptide concentration was determined by measuring the absorbance at 483 nm and using a molar extinction coefficient of 68,000 M^-1cm^-1. […] The resulting isotherms were analysed in SEDPHAT. Data for the Trp-JIP3^LZ as titrant were fitted with the A + B + B → AB + B → ABB model, whilst binding of the FITC-CSTN-WD2 peptide was analysed using the A + B → AB model. […] During fitting, the FITC-CSTN-WD2 peptide concentrations consistently refined to values around 30% greater than the measured value of 380 μM, with Napp values around 0.7 (Table S2). […]

[2] = tested on: wild-type and mutant KLC2^TPR-myc; test: ITC with wild-type and/or TPR1-mutant KLC2^TPR-myc (collective statements); type: binding, murine
Procedure: (§2) The Trp-JIP3^LZ protein used for CD and ITC experiments was prepared as described above for the JIP3^LZ, with the following modifications. Following 3C cleavage, contaminating GST3C was removed by incubation of the eluate with fresh, pre-equilibrated glutathione sepharose 4B resin for 2 hours at room temperature. The Trp-JIP3^LZ was then further purified by size exclusion chromatography using a Superdex 75 16/600 column equilibrated in 100 mM NaCl, 25 mM HEPES, 1 mM TCEP (final pH 7.5). Wild-type/mutant KLC2^TPR-myc samples used for CD and ITC experiments were prepared as described above the KLC2^TPR used in crystallographic studies. The Trp-JIP3^LZ and KLC2^TPR-myc samples used in the fluorescence anisotropy-based binding competition assays were prepared as for those used in the CD and ITC studies, but the final size-exclusion step was performed in 100 mM NaCl, 25 mM HEPES, 5mM MgCl2, 1 mM TCEP (final pH 7.5).
To study binding of the Trp-JIP3^LZ and FITC-CSTN-WD2 peptide to wild-type and mutant KLC2^TPR-myc, the recombinant proteins were prepared by size exclusion chromatography in 0.1 M NaCl, 25 mM HEPES, 1 mM TCEP, final pH 7.5. […] The peptide concentration was determined by measuring the absorbance at 483 nm and using a molar extinction coefficient of 68,000 M^-1cm^-1. […] The resulting isotherms were analysed in SEDPHAT. […]

wild-type KLC2^TPR-myc = test: ITC of Trp-JIP3^LZ or FITC-CSTN-WD2 peptide into wild-type KLC2^TPR-myc; type: binding, murine; details: n = 2
Procedure: as §2
(§3) To study binding of the Trp-JIP3^LZ and FITC-CSTN-WD2 peptide to wild-type and mutant KLC2^TPR-myc, the recombinant proteins were prepared by size exclusion chromatography in 0.1 M NaCl, 25 mM HEPES, 1 mM TCEP, final pH 7.5. Wild-type or mutant KLC2^TPR-myc at 44-50 μM were placed in the cell. The Trp-JIP3^LZ was used as the titrant at dimer concentrations of 297-330 μM. The FITC-CSTN-WD2 peptide was used as the titrant at a concentration of 380 μM. The peptide concentration was determined by measuring the absorbance at 483 nm and using a molar extinction coefficient of 68,000 M^-1cm^-1. ITC experiments were performed as described above with injections spaced 120-150 s apart. Thermograms were integrated and corrected for heats of dilution using NITPIC (http://biophysics.swmed.edu/MBR/software.html). The resulting isotherms were analysed in SEDPHAT. Data for the Trp-JIP3^LZ as titrant were fitted with the A + B + B → AB + B → ABB model, whilst binding of the FITC-CSTN-WD2 peptide was analysed using the A + B → AB model. Between 2 and 3 experiments were performed for each titrand/titrant pair. For each titrand/titrant pair, the isotherms from the experiments were globally fitted with the relevant model. […] During fitting, the FITC-CSTN-WD2 peptide concentrations consistently refined to values around 30% greater than the measured value of 380 μM, with Napp values around 0.7 (Table S2). We ascribe this to an under-quantification of the FITC-CSTN-WD2 peptide concentration since the peptide contains a single tryptophan-acidic motif, and the concentration values for experiments with Trp-JIP3^LZ as ligand refined close to their measured values.

KLC2 L220Y mutant = test: ITC of FITC-CSTN-WD2 peptide into L220Y KLC2^TPR-myc; type: binding, murine; details: 25°C, 0.1 M NaCl, n = 2
Procedure: as §2
as §3, with “The FITC-CSTN-WD2 peptide was used as the titrant at a concentration of 380 μM.” left out, “ITC experiments were performed as described above with injections spaced 120-150 s apart. Thermograms were integrated and corrected for heats of dilution using NITPIC (http://biophysics.swmed.edu/MBR/software.html).” left out, “AB” for “AB model. Between 2 and 3 experiments were performed for each titrand/titrant pair. For each titrand/titrant pair, the isotherms from the experiments were globally fitted with the relevant”

[3] = tested on: KLC2^TPR-myc Tyr^208Ala (Y208A); test: ITC of FITC-CSTN-WD2 peptide into Y208A KLC2^TPR-myc; type: binding, murine; details: n = 2
Source text: as §1
as §2, with “Wild-type/mutant KLC2^TPR-myc samples used for CD and ITC experiments were prepared as described above the KLC2^TPR used in crystallographic studies.” left out
To study binding of the Trp-JIP3^LZ and FITC-CSTN-WD2 peptide to wild-type and mutant KLC2^TPR-myc, the recombinant proteins were prepared by size exclusion chromatography in 0.1 M NaCl, 25 mM HEPES, 1 mM TCEP, final pH 7.5. […] The peptide concentration was determined by measuring the absorbance at 483 nm and using a molar extinction coefficient of 68,000 M^-1cm^-1. […] The resulting isotherms were analysed in SEDPHAT. Data for the Trp-JIP3^LZ as titrant were fitted with the A + B + B → AB + B → ABB model, whilst binding of the FITC-CSTN-WD2 peptide was analysed using the A + B → AB model. […] During fitting, the FITC-CSTN-WD2 peptide concentrations consistently refined to values around 30% greater than the measured value of 380 μM, with Napp values around 0.7 (Table S2). We ascribe this to an under-quantification of the FITC-CSTN-WD2 peptide concentration since the peptide contains a single tryptophan-acidic motif, and the concentration values for experiments with Trp-JIP3^LZ as ligand refined close to their measured values.

KLC2^TPR-myc = molecular target: T1, KLC2^TPR-myc (Mus musculus, UniProt O88448); test: Fluorescence anisotropy-based binding competition against FITC-LFP motif peptide; set-up: species or system murine; details: FITC-LFP peptide 300 nM, KLC2^TPR-myc 21 μM, Trp-JIP3^LZ two independent experiments, CSTN-WD1 one experiment
T1 construct: comprised murine KLC2 residues 191-480; His6-SUMO (N, cleaved yes); made in house; host or cells: E. coli BL21(DE3) Rosetta
Source text: Kinesin-1 activation by JIP3 requires JIP3^LZ binding to KLC^TPR ([Watt et al., 2015]). How does JIP3^LZ binding to the KLC^TPR relieve KLC regulation of the kinesin-1 molecule? Tryptophan-acidic cargoes activate kinesin-1 by releasing the KLC LFP motif from the KLC^TPR ([Yip et al., 2016]). […] We therefore wondered whether JIP3^LZ binding to the KLC2^TPR allosterically regulates interactions between KLC2^TPR and the LFP motif. We investigated this using an in vitro, fluorescence anisotropy-based binding competition assay with purified proteins and peptides ([Yip et al., 2016]). […] Thus, JIP3 activates kinesin-1 by a different mechanism to tryptophan-acidic cargoes.
The binding affinity between the FITC-labelled LFP-motif peptide and the KLC2^TPR-myc was measured essentially as described previously ([Yip et al., 2016]). FITC-labelled LFP motif peptide (300 nM) was incubated with 2-fold dilutions of KLC2^TPR-myc in assay buffer (0.1 M NaCl, 25 mM HEPES, 5 mM MgCl2, 1 mM TCEP, final pH 7.5) in triplicate in 384-well plates, for 1 hour at room temperature. Fluorescence measurements were recorded on a TecanSpark plate reader at excitation and emission wavelengths of 488 nm and 535 nm respectively. Fluorescence anisotropy values were calculated at each KLC2^TPR-myc concentration and the data were fitted with a fixed-slope dose response curve in Prism (GraphPad). […]

[4] = 25 mM HEPES, 1 mM TCEP, pH 7.5, A + B → AB model, global fit
[5] = FITC-CSTN-WD2, 25°C, 0.1 M NaCl, pH 7.5, global fit
[6] = 25°C, 0.1 M NaCl, pH 7.5, global fit

T1 sequence (O88448 191-480): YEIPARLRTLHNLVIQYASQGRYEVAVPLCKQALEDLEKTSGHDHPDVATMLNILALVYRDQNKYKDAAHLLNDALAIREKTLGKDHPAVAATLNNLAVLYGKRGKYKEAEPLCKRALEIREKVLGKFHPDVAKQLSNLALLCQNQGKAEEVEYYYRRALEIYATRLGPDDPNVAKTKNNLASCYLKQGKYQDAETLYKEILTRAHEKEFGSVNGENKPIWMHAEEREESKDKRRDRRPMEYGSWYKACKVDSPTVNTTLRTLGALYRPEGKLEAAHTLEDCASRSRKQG

Substance	K, macroscopic association constant [1, 4]	-TΔS ([1]; pH 7.5, global fit)	ΔH ([1]; pH 7.5, global fit)	Napp values ([2]; FITC-CSTN-WD2, wild-type and mutant KLC2^TPR-myc, ascribed to under-quantification of the peptide concentration)	effect of the three TPR1 mutations on binding ([2]; all three mutations in TPR1 of KLC2^TPR-myc, ITC)	K, macroscopic association constant (wild-type KLC2^TPR-myc; FITC-CSTN-WD2, 25°C, 0.1 M NaCl, 25 mM HEPES, 1 mM TCEP, pH 7.5, A + B → AB model, global fit)	-TΔS (wild-type KLC2^TPR-myc; [5])	ΔH (wild-type KLC2^TPR-myc; [5])	Napp, apparent binding stoichiometry (wild-type KLC2^TPR-myc; FITC-CSTN-WD2, mean ± standard deviation)	K, macroscopic association constant (KLC2 L220Y mutant; [4])	-TΔS (KLC2 L220Y mutant; pH 7.5, global fit)	ΔH (KLC2 L220Y mutant; pH 7.5, global fit)	K, macroscopic association constant ([3]; 25°C, 0.1 M NaCl, 25 mM HEPES, 1 mM TCEP, pH 7.5, A + B → AB model, global fit)	-TΔS [3, 6]	ΔH [3, 6]	Napp, apparent binding stoichiometry ([3]; mean ± standard deviation)	effect on binding of KLC2^TPR-myc to FITC-labeled LFP motif peptide (KLC2^TPR-myc)
{FITC}-TRQLEWDDSTL-OH [FITC-CSTN-WD2, FITC-labeled tryptophan-acidic calsyntenin-1 peptide]	0.845 µM⁻¹	-16.36 kJ/mol	-17.46 kJ/mol	around 0.7	only minor effects on binding	0.820 µM⁻¹	-15.74 kJ/mol	-18.01 kJ/mol	0.67 ± 0.08	0.739 µM⁻¹	-17.17 kJ/mol	-16.33 kJ/mol	0.541 µM⁻¹	-18.67 kJ/mol	-14.05 kJ/mol	0.67 ± 0.07	–
Ac-GKENEMDWDDSALTITVN [CSTN-WD1]	–	–	–	–	–	–	–	–	–	–	–	–	–	–	–	–	blocked binding

From article PMC6224480, “Insights into Kinesin-1 Activation from the Crystal Structure of KLC2 Bound to JIP3” (Structure(London, England:1993), 2018)
